In PMC12281487, “Discovery and Validation of a Novel Class of Necroptosis Inhibitors Targeting RIPK1” (ACS Chemical Biology, 2025):

Assays:
[1] = tested on: C57BL/6J mice; experiment: TNF-induced SIRS murine model; details: 5 mg/kg i.v. 15 min before TNF 0.5 mg/kg i.v., 3 mice per group
Procedure: Male C57BL/6J mice of 18–25 g were used at the age of 6–8 weeks. Three animals were included in each experimental group. All animal experiments were carried out with the permission of the local animal ethical committee in accordance with the EU Directive (2010/63/EU), Portuguese laws (DL113/2013, 2880/2015, 260/2016), and all relevant legislations. Animals received humane care in a temperature-controlled environment with a 12 h light–dark cycle and ad libitum access to pelleted chow and water, complying with the Institute’s guidelines, and as outlined in the “Guide for the Care and Use of Laboratory Animals” prepared by the National Academy of Sciences and published by the National Institutes of Health (NIH publication 86-23 revised 1985). […] TNF was diluted in sterile PBS. […] All injections were administered intravenously (i.v.).

[2] = biological target: T1, RIPK1 (Homo sapiens, UniProt Q13546); experiment: Streptavidin mass shift assay (photoaffinity labeling, target engagement) in I2.1 cells; assay type: cell-based; details: competition assay, pretreatment before 7PQYnD photoaffinity labeling
T1 construct: Following incubation of I2.1 cells with the probe, irradiation to induce photocrosslinking; endogenous in cells; host or cells: I2.1 FADD-deficient Jurkat T cells (ATCC, CRL-2572)
T1 sequence (Q13546 1-671): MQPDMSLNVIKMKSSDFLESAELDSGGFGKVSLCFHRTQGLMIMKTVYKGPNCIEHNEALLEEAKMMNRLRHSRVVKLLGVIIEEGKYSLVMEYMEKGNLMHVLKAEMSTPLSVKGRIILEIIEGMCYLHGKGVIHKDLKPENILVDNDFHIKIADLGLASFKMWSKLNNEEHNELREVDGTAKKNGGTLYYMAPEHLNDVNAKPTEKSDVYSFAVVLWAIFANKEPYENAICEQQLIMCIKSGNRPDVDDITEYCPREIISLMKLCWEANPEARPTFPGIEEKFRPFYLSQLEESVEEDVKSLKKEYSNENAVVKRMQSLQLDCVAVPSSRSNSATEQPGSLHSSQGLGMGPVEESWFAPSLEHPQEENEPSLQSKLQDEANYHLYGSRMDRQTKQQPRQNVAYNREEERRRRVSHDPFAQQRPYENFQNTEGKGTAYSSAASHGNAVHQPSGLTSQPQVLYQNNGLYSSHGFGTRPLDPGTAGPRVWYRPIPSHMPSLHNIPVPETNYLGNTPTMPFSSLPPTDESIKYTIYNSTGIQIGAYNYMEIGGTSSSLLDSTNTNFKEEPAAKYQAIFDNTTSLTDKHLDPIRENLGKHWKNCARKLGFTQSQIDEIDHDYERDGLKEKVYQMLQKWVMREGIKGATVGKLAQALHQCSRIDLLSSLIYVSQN
Procedure: Target engagement was confirmed by Streptavidin mass shift assay, whereby lysates are incubated with streptavidin and subsequently separated by SDS–PAGE. The high stability of streptavidin at a range of temperatures, in various detergents and pH, in combination with the extremely high affinity for biotin means the streptavidin–biotin interaction is not separated during gel electrophoresis, resulting in a mass shift of biotin-labeled proteins in the presence of streptavidin, which can be visualized by Western blot (Figure a).
I2.1 cells were seeded in sterile six-well plates at a density of 2 × 10^6 cells per well and incubated at 37 °C overnight. 1000× stocks of the desired concentration of compound in DMSO were preprepared. […]
Cells were transferred to a microcentrifuge tube, centrifuged at 200g for 5 min, and media removed. […] Protein concentration was determined using the DC Protein Assay (Bio-Rad) in a 96-well plate as per the manufacturer’s instructions and the concentration adjusted to 1–2 mg mL^–1 using lysis buffer. […]
Samples were prepared by adding 4 μL of 4× loading buffer to 10 μL of the protein samples and boiling at 95 °C for 10 min. […] In-gel fluorescence was detected by using a Typhoon FLA 9500 biomolecular imager (750 V, 100 μm pixels). […]

[3] = tested on: RIPK1 Ser166 phosphorylation; experiment: Western blot of RIPK1 Ser166 phosphorylation in I2.1 cells; assay type: cell-based, human; details: prior treatment with 10 μM compound
Procedure: All compound treatments were performed with a preprepared 1000× stock of the desired concentration in DMSO and added directly to the relevant plate, with a final concentration of 0.1% DMSO on the cells. TNF (final concentration 575 pM) was added to induce necroptosis, the cells incubated for 4 h and harvested.
Cells were transferred to a microcentrifuge tube and centrifuged at 200g for 5 min, and media were removed. Cells were washed with PBS and lysed with 100 μL of lysis buffer (radioimmunoprecipitation assay lysis buffer, Sigma-Aldrich, R0278) supplemented with 1× phosphatase inhibitor cocktail 2 (Sigma, P5726) and 1× complete EDTA-free protease inhibitor cocktail (Sigma, […])) on ice for 30 min. The lysate was collected by centrifugation at 17,000g, 4 °C for 5 min, and the lysate was transferred to a new microcentrifuge tube. Protein concentration was determined using the DC Protein Assay (Bio-Rad) in a 96-well plate as per the manufacturer’s instructions and subsequently adjusted to 1 mg mL^–1 using lysis buffer. Samples were prepared by adding 4 μL of 4× loading buffer (Biorad, 161-0747) containing β-mercaptoethanol to 12 μL of protein sample and boiling at 95 °C for 10 min. 14 μL of each sample was loaded onto a 4–15% Mini-PROTEAN TGX precast gel (Biorad, 456-1086) and run in 1× running buffer (0.25 M Tris, 0.2 M glycine, 0.1% (w/v) SDS) for 1.15 h at 130 V. Either 2 μL of precision plus protein all blue prestained protein standards (Bio-Rad, 1610373) or precision plus protein dual color standards (Bio-Rad, 1610374) was used in at least one well.
Proteins were transferred onto a nitrocellulose membrane (GE Healthcare) using the Trans-Blot Turbo Transfer System (Biorad, 1704150) at 2.5 A and 25 V for 7 min. The membrane was stained with Ponceau S to confirm protein transfer prior to blocking with 5% (w/v) nonfat dried skimmed milk in TBS-T (1× Tris-buffered saline, 0.1% (v/v) Tween-20) at rt for 1 h. Staining with the desired primary antibody in 5% (w/v) nonfat dried skimmed milk in TBS-T was performed overnight at 4 °C. The blot was washed with TBS-T at rt (3 × 5 min) and stained with secondary antibody in 5% (w/v) nonfat dried skimmed milk in TBS-T for 1 h at rt. The blot was washed with TBS-T at rt (3 × 5 min), visualized with Immobilon Crescendo Western HRP substrate, and imaged using ImageQuant LAS-4000 Imaging System (Fujifilm), and the contrast normalized in Fiji.

With CN1C(=O)C(Cc2c[nH]c3ccccc23)NC1=S (stereo not drawn) [Nec-1, Necrostatin 1] the “protection from TNF-induced mortality (survival)” value [1] was “partially protected”, the “7PQYnD-mediated RIPK1 streptavidin band shift after pretreatment with competitor” value [2] was “retained” and the “phosphorylation of RIPK1 Ser166 after TNF” value [3] was “blocked”.
